Source: patent publication US20120058989A1, “ANTIBACTERIAL FLUOROQUINOLONE ANALOGS” (Achaogen, Inc., priority 2008, published 2012)

Tests used:
Assay in all cases: MIC, CLSI broth microdilution
Assay type in all cases: cell-based
[1] = tested on: A. baumannii AABA1065 (Fluoroquinolone-susceptible)
Outline: (§1)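 Broth microdilution per CLSI M7-A7, with serial two-fold compound dilutions in Mueller Hinton Broth mixed 1:1 with inoculum. Colonies from a previous-day agar plate were suspended in saline to a final 5×10^5 CFU/mL. Plates were incubated 20 hours at 35° C. in ambient air.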

[2] = tested on: S. aureus ASAU002 (Fluoroquinolone-susceptible, ATCC33591 (MRSA)); details: Table 3
Outline: as §1

[3] = tested on: S. pneumoniae ASPN1027 (Fluoroquinolone-resistant)
Outline: as §1

[4] = tested on: E. coli AECO066 (Fluoroquinolone-resistant)
Outline: as §1

[5] = tested on: A. baumannii AABA1009 (Fluoroquinolone-resistant); details: Table 2
Outline: as §1

[6] = tested on: P. aeruginosa APAE054 (Fluoroquinolone-resistant)
Outline: as §1

[7] = tested on: S. aureus ASAU1031 (Fluoroquinolone-resistant)
Outline: as §1

[8] = tested on: E. coli AECO086 (Fluoroquinolone-resistant); details: Table 3
Outline: as §1

[9] = tested on: S. aureus ASAU1033 (Fluoroquinolone-resistant); details: Table 3
Outline: as §1

[10] = tested on: A. baumannii AABA1020 (Fluoroquinolone-resistant); details: Table 3
Outline: as §1

[11] = tested on: S. aureus ASAU001 (Fluoroquinolone-susceptible, ATCC29213)
Outline: as §1

[12] = tested on: S. pneumoniae ASPN1018 (Fluoroquinolone-resistant); details: Table 3
Outline: as §1

[13] = tested on: E. coli AECO001 (Fluoroquinolone susceptible, ATCC25922)
Outline: as §1

[14] = tested on: S. pneumoniae ASPN001 (Fluoroquinolone-susceptible, ATCC49619)
Outline: as §1

[15] = tested on: P. aeruginosa APAE002 (Fluoroquinolone susceptible); details: Table 3
Outline: as §1

[16] = tested on: E. coli AECO002 (Fluoroquinolone susceptible); details: Table 3
Outline: as §1

[17] = tested on: P. aeruginosa APAE001 (Fluoroquinolone-susceptible, ATCC27853)
Outline: as §1

[18] = tested on: S. pneumoniae ASPN002 (Fluoroquinolone-susceptible, ATCC10813); details: Table 3
Outline: as §1

MIC AABA 1065 ([1]; Table 2)	MIC AABA 1065 ([1]; Table 3)	MIC ASAU002 [2]	MIC ASPN 1027 ([3]; Table 3)	MIC AECO 066 ([4]; Table 3)	MIC APAE 054 ([6]; Table 2)	MIC APAE 054 ([6]; Table 3)	MIC ASAU 1031 ([7]; Table 3)	MIC AECO086 [8]	MIC ASAU1033 [9]	MIC AABA1020 [10]	MIC ASAU 001 ([11]; Table 2)	MIC ASAU 001 ([11]; Table 3)	MIC ASPN1018 [12]	MIC AECO 001 ([13]; Table 2, 35° C., 20 hours)	MIC AECO 001 ([13]; Table 3)	SMILES	MIC ASPN 1027 ([3]; Table 2)	MIC AECO 066 ([4]; Table 2)	MIC AABA 1009 [5]	MIC ASAU 1031 ([7]; Table 2)	also measured
A (MIC's of 1.0 μg/mL or less = A)	A (MIC's of less than 1.0 = A)	A (MIC's of less than 1.0 = A)	A (MIC's of less than 1.0 = A)	C (MIC's of 2.0 μg/mL to 8.0 μg/mL = C)	C (MIC's of greater than 8.0 μg/mL = C)	D (MIC's of greater than 8.0 μg/mL = D)	A (MIC's of less than 1.0 = A)	C (MIC's of 2.0 μg/mL to 8.0 μg/mL = C)	C (MIC's of 2.0 μg/mL to 8.0 μg/mL = C)	D (MIC's of greater than 8.0 μg/mL = D)	A (MIC's of 1.0 μg/mL or less = A)	A (MIC's of less than 1.0 = A)	B (MIC's of 1.0 μg/mL to 2.0 μg/mL = B)	A (MIC's of 1.0 μg/mL or less = A)	A (MIC's of less than 1.0 = A)	NC1CCN2c3c(F)cc4c(=O)c(C(=O)O)cn(C5CC5)c4c3CCCC12.O=C(O)C(F)(F)F [16/18, (7aR,8R)-8-Amino-4-cyclopropyl-12-fluoro-1-oxo-4,5,6,7,7a,8,9,10-octahydro-1H-pyrrolo[1′,2′:1,7]azepino[2,3-h]quinoline-2-carboxylic acid trifluoroacetate]	B (MIC's of greater than 1.0 μg/mL to 8.0 μg/mL = B)	B (MIC's of greater than 1.0 μg/mL to 8.0 μg/mL = B)	B (MIC's of greater than 1.0 μg/mL to 8.0 μg/mL = B)	B (MIC's of greater than 1.0 μg/mL to 8.0 μg/mL = B)	MIC ASPN 001 ([14]; Table 2): A (MIC's of 1.0 μg/mL or less = A); MIC ASPN 001 ([14]; Table 3): A (MIC's of less than 1.0 = A); MIC APAE002 [15]: A (MIC's of less than 1.0 = A); MIC AECO002 [16]: A (MIC's of less than 1.0 = A); MIC APAE 001 ([17]; Table 2): A (MIC's of 1.0 μg/mL or less = A); MIC APAE 001 ([17]; Table 3): A (MIC's of less than 1.0 = A); MIC ASPN002 [18]: A (MIC's of less than 1.0 = A)
A (MIC's of 1.0 μg/mL or less = A)	A (MIC's of less than 1.0 = A)	A (MIC's of less than 1.0 = A)	A (MIC's of less than 1.0 = A)	C (MIC's of 2.0 μg/mL to 8.0 μg/mL = C)	C (MIC's of greater than 8.0 μg/mL = C)	D (MIC's of greater than 8.0 μg/mL = D)	A (MIC's of less than 1.0 = A)	B (MIC's of 1.0 μg/mL to 2.0 μg/mL = B)	C (MIC's of 2.0 μg/mL to 8.0 μg/mL = C)	D (MIC's of greater than 8.0 μg/mL = D)	A (MIC's of 1.0 μg/mL or less = A)	A (MIC's of less than 1.0 = A)	B (MIC's of 1.0 μg/mL to 2.0 μg/mL = B)	A (MIC's of 1.0 μg/mL or less = A)	A (MIC's of less than 1.0 = A)	N[C@H]1CCN2c3c(F)cc4c(=O)c(C(=O)O)cn(C5CC5)c4c3C=CC[C@H]12.O=C(O)C(F)(F)F [17/8, (7aR,8S)-8-Amino-4-cyclopropyl-12-fluoro-1-oxo-4,7,7a,8,9,10-hexahydro-1H-pyrrolo[1′,2′:1,7]azepino[2,3-h]quinoline-2-carboxylic acid trifluoroacetate]	B (MIC's of greater than 1.0 μg/mL to 8.0 μg/mL = B)	B (MIC's of greater than 1.0 μg/mL to 8.0 μg/mL = B)	C (MIC's of greater than 8.0 μg/mL = C)	B (MIC's of greater than 1.0 μg/mL to 8.0 μg/mL = B)	MIC ASPN 001 ([14]; Table 2): A (MIC's of 1.0 μg/mL or less = A); MIC ASPN 001 ([14]; Table 3): A (MIC's of less than 1.0 = A); MIC APAE002 [15]: A (MIC's of less than 1.0 = A); MIC AECO002 [16]: A (MIC's of less than 1.0 = A); MIC APAE 001 ([17]; Table 2): A (MIC's of 1.0 μg/mL or less = A); MIC APAE 001 ([17]; Table 3): A (MIC's of less than 1.0 = A); MIC ASPN002 [18]: A (MIC's of less than 1.0 = A)
